{
  "source": "patent US6790619B2",
  "about": "“Plant phosphomevalonate kinases” (Bayer Aktiengesellschaft, priority 2000, dated 2004)",
  "test_system": "PMVK expression",
  "test": "virtual Northern blot analysis of differential PMVK expression in response to chlorsulfuron",
  "format": "in vivo, Arabidopsis thaliana cv. Columbia",
  "conditions": "Arabidopsis plants harvested 24 hours after treatment with chlorsulfuron 10 g/ha vs control treatment",
  "protocol": "Suppression subtractive hybridization constitutes a method of isolating differentially expressed genes. The two samples to be compared were on the one hand Arabidopsis plants which had been harvested 24 hours after treatment with a herbicide (chlorsulfuron, 10 g/ha) and, on the other hand, Arabidopsis plants which had been harvested 24 hours after a control treatment. The 370 bp PMVK fragment was isolated from the chlorsulfuron-treated plants in which PMVK transcription may have been induced by the treatment. To verify differential PMVK expression in the response to chlorsulfuron, so-called virtual Northern blot analyses were carried out. In a virtual Northern blot, cDNA is prepared from total RNA with Clontech's SMART method (see manufacturer's instructions) and amplified by PCR. A low enough number of PCR cycles is employed so that the amplification is still within the linear range of the PCR. In the present case, an optimum between 15 and 18 cycles emerged. The SMART cDNA is separated on an agarose gel by methods known to the skilled worker, transferred to a nylon membrane and hybridized with a DIG-labelled probe. This method permits study of the expression even of genes with a low expression level.",
  "note": "Entries after “also recorded” stand apart in the source; their conditions may differ.",
  "data": [
    {"smiles": "COc1nc(C)nc(NC(=O)NS(=O)(=O)c2ccccc2Cl)n1", "note": "[chlorsulfuron]", "values": [
      {"measurement": "induction of PMVK expression", "result": "low degree of induction; also recorded: possible to induce this gene"}
    ]}
  ]
}
